In patent publication US4314028A, “Fermentation process for producing tallysomycin compounds” (priority 1980, dated 1982):
Where two headings read alike, the source gives them in different places.

Columns and labels:
[1] = system: Sarcoma 180; experiment: animal or person; format: in vivo, dd-strain mice; details: for ED (T/C 150%): Mus musculus, 216 h, read-out: Antitumor activity S180 (ED150); for ED (T/C 150%) / Antitumor activity S180 (ED150): ip
Method in brief: (§1)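 P388 (3×10^5 cells) and Lewis lung (5×10^5) i.p. in BDF1 mice, B16 (5×10^5) s.c. in BDF1, Sarcoma 180 ([…]) i.p. in male dd mice. ED125 (Sarcoma 180 ED150) from median-survival T/C, 45 days; B16 ID50 from day-16 tumor size.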

[2] = system: Lewis lung carcinoma; experiment: Antitumor activity in mice, Lewis lung carcinoma; format: in vivo, BDF1 mice; details: for Antitumor activity Lewis lung (ED125): once daily 11 days, dose giving T/C survival of 125%
Excerpt: The antitumor activity of the tallysomycin derivatives was examined in four experimental tumor systems in mice. Lymphocytic leukemia P388 and Lewis lung carcinoma were implanted intraperitoneally into BDF1 mice of either sex at an inoculum size of 3×10^5 and 5×10^5 cells per mouse, respectively. Sarcoma 180 ascites tumor was inoculated intraperitoneally into male dd-strain mice with […] per mouse. Melanotic melanoma B16 was implanted subcutaneously into BDF1 mice with 5×10^5 cells per mouse. Twenty-four hours after the implantation of tumor cells, graded doses of test compounds were administered to mice intraperitoneally in an injection volume of 0.2 ml. per 10 grams of body weight. Test compounds were given once daily for 9 days (qd 1→9 schedule) except for the mice inoculated with Lewis lung carcinoma which were treated for 11 days (qd 1→11). Death or survival of the treated and non-treated (control) animals was recorded daily during the observation period of 45 days after the implantation of tumor cells, and the median survival time was calculated for each of the test (T) and control (C) groups. […] The actual dose giving a T/C of 125% was estimated by linear regression analysis and defined as the effective dose 125 or ED125. The effective dose 150 (ED150) was employed for the evaluation of antitumor effect against Sarcoma 180. In the B16 melanoma experiment the tumor size was measured on day 16 after tumor inoculation, and the dose giving 50% inhibition of tumor growth (ID50) was calculated from regression lines.
The antitumor therapeutic index was calculated for each derivative from the ratio of toxicity and antitumor activity.

[3] = Acute toxicity, single dose LD50; format: in vivo, dd mice; details: ip, 30 days observation, copper-chelated form unless otherwise stated
Experimental: (§2) Graded doses of test compounds were administered intraperitoneally to groups of dd mice. The injection was given one time only or once daily for 9 consecutive days. Death or survival of the animals was recorded for 30 days after the last dose of test compound to calculate the single or multiple median lethal dose (LD50).

[4] = system: Lymphocytic leukemia P388; experiment: animal or person; format: in vivo, BDF1 mice; details: for Antitumor activity P388 (ED125): ip, once daily 9 days, dose giving T/C survival of 125%
Method in brief: as §1

[5] = Subacute toxicity, multiple dose LD50; format: in vivo, dd mice; details: ip, once daily 9 days, 30 days observation; copper-chelated form unless otherwise stated
Experimental: as §2

[6] = system: Mycobacterium smegmatis strain M6-3; experiment: Relative antibacterial potency, paper-disc agar diffusion method; format: cell-based; details: relative to tallysomycin A standard=1000 mcg/mg
Experimental: The relative antibacterial potencies (tallysomycin A standard=1000 mcg/mg) of the tallysomycin derivatives were determined by the paper-disc agar diffusion method using Mycobacterium smegmatis strain M6-3 as the assay organism.

[7] = system: Candida albicans IAM 4888; experiment: MIC, two-fold agar dilution method; format: cell-based; details: Sabouraud agar
Method in brief: (§3)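 Agar dilution (2-fold series) on nutrient agar (bacteria) or Sabouraud agar (fungi).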

[8] = system: Proteus mirabilis A9554; experiment: MIC, two-fold agar dilution method; format: cell-based; details: nutrient agar
Method in brief: as §3

[9] = system: Staphylococcus aureus Smith; experiment: MIC, two-fold agar dilution method; format: cell-based; details: nutrient agar
Method in brief: (§4)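 For each organism, growth was scored on agar plates carrying doubling concentrations of compound. Bacteria, both gram-positive and acid-fast, grew on nutrient agar, and A. fumigatus grew on Sabouraud agar.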

[10] = system: Sarcina lutea PCI1001; experiment: MIC, two-fold agar dilution method; format: cell-based; details: nutrient agar
Method in brief: as §4

[11] = system: Escherichia coli NIHJ; experiment: MIC, two-fold agar dilution method; format: cell-based; details: nutrient agar
Method in brief: as §3

[12] = system: Bacillus subtilis PCI 219; experiment: MIC, two-fold agar dilution method; format: cell-based; details: nutrient agar
Method in brief: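 Compounds are diluted two-fold through agar plates: Sabouraud medium for the fungus, nutrient medium for the bacterial strains, including the acid-fast Mycobacterium 607. Organisms are then applied and the minimum inhibitory concentration is recorded.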

[13] = system: Aspergillus fumigatus IAM 2593; experiment: MIC, two-fold agar dilution method; format: cell-based; details: Sabouraud agar
Method in brief: as §4

[14] = system: Mycobacterium 607; experiment: MIC, two-fold agar dilution method; format: cell-based; details: nutrient agar
Method in brief: as §4

[15] = system: Melanotic melanoma B16; experiment: Antitumor activity in mice, melanotic melanoma B16; format: in vivo, BDF1 mice; details: copper-chelated form unless otherwise stated; for Antitumor activity B16 (ID50): ip, once daily 9 days, 50% inhibition of tumor growth, day 16, 23040 min
Method in brief: as §1

[16] = system: lysogenic bacterium E. coli W1709 (λ); experiment: Prophage induction of lysogenic bacterium (ILB activity); format: cell-based; details: t/c ratio of plaque counts greater than 3.0
Method in brief: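 Plaques counted on agar plates containing test compound and on control plates, following Lein et al. A test/control plaque ratio above 3.0 counted as significant. Value given as the minimum inducible concentration.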

[17] = once daily 9 days, effective dose 150, survival, copper-chelated form unless otherwise stated
[18] = ip, copper-chelated form unless otherwise stated
[19] = copper-chelated form unless otherwise stated
[20] = single dose LD50/ED125, copper-chelated form unless otherwise stated

| Compound | ED (T/C 150%) [1, 17] [mg/kg/day] | Antitumor activity Lewis lung (ED125) [2, 18] [mg/kg/day] | LD50 single dose [3] [mg/kg/day] | Antitumor activity P388 (ED125) [4, 19] [mg/kg/day] | LD50 multiple dose (qd 1 → 9) [5] [mg/kg/day] | Antitumor activity S180 (ED150) [1, 17] [mg/kg/day] | Antibacterial potency [6] | minimum inhibitory concentration (MIC) [7] | minimum inhibitory concentration (MIC) [8] | minimum inhibitory concentration (MIC) [9] | minimum inhibitory concentration (MIC) [10] | minimum inhibitory concentration (MIC) [11] | minimum inhibitory concentration (MIC) [12] | minimum inhibitory concentration (MIC) [13] | minimum inhibitory concentration (MIC) [14] | Antitumor activity B16 (ID50) [15] [mg/kg/day] | ILB activity (minimum inducible concentration) [16] [µg/mL] | other results |
| --- | --- | --- | --- | --- | --- | --- | --- | --- | --- | --- | --- | --- | --- | --- | --- | --- | --- | --- |
| Cc1c(N)nc(C(CC(N)=O)NCC(N)C(N)=O)nc1C(=O)NC(C(=O)NC(C)C(O)CC(=O)NC(C(=O)NC(OC1OC(C)C(N)C(O)C1O)C(O)c1nc(-c2nc(C(=O)NCCCC(N)CC(=O)NCCCNCCCCN)cs2)cs1)C(C)O)C(OC1OC(CO)C(O)C(O)C1OC1OC(CO)C(O)C(OC(N)=O)C1O)c1c[nH]cn1 (centres unmarked) [Tallysomycin A (Cu-free), reference compound] | 0.07 | 0.13 | 19 | 0.26 | 4.4 | – | – | – | – | – | – | – | – | – | – | – | – | – |
| Cc1c(N)nc(C(CC(N)=O)NCC(N)C(N)=O)nc1C(=O)NC(C(=O)NC(C)C(O)CC(=O)NC(C(=O)NC(OC1OC(C)C(N)C(O)C1O)C(O)c1nc(-c2nc(C(=O)NCCCNCCCCN)cs2)cs1)C(C)O)C(OC1OC(CO)C(O)C(O)C1OC1OC(CO)C(O)C(OC(N)=O)C1O)c1c[nH]cn1 (centres unmarked) [Tallysomycin B (Cu-free), reference compound] | 0.06 | 0.11 | 46 | 0.89 | 6.8 | – | – | – | – | – | – | – | – | – | – | – | – | – |
| Cc1c(N)nc(C(CC(N)=O)NCC(N)C(N)=O)nc1C(=O)NC(C(=O)NC(C)C(O)CC(=O)NC(C(=O)NC(OC1OC(C)C(N)C(O)C1O)C(O)c1nc(-c2nc(C(=O)NCCC[S+](C)C)cs2)cs1)C(C)O)C(OC1OC(CO)C(O)C(O)C1OC1OC(CO)C(O)C(OC(N)=O)C1O)c1cnc[nH]1.Cl.Cl.Cl.[Cl-] (centres unmarked) [Tallysomycin S2b] | – | 0.65 | 32 | 0.91 | 2.0 | 0.12 | 300 μ/mg | 25 | 1.6 | 1.6 | 6.3 | 0.4 | < 0.05 | 0.8 | 0.2 | 0.33 | 0.63 | Antitumor therapeutic index S180 ([1]; single dose LD50/ED150, copper-chelated form unless otherwise stated): 267; Antitumor therapeutic index Lewis Lung [2, 20]: 49; Antitumor therapeutic index B16 ([15]; single dose LD50/ID50): 97; Antitumor therapeutic index P388 [4, 20]: 35 |
| Cc1c(N)nc(C(CC(N)=O)NCC(N)C(N)=O)nc1C(=O)NC(C(=O)NC(C)C(O)CC(=O)NC(C(=O)NC(OC1OC(C)C(N)C(O)C1O)C(O)c1nc(-c2nc(C(=O)NCCCCN)cs2)cs1)C(C)O)C(OC1OC(CO)C(O)C(O)C1OC1OC(CO)C(O)C(OC(N)=O)C1O)c1c[nH]cn1 (centres unmarked) [Tallysomycin S10b (Cu-free)] | – | – | 42 | – | 4.0 | – | – | – | – | – | – | – | – | – | – | – | – | ED (T/C 150%) [1]: 0.02 mg/kg/day; ED (T/C 125%) ([2]; Mus musculus, Lewis lung carcinoma, ip, 264 h, read-out: Antitumor activity Lewis lung (ED125)): 0.21 mg/kg/day; ED (T/C 125%) ([4]; Mus musculus, P388, ip, 216 h, read-out: Antitumor activity P388 (ED125)): 0.47 mg/kg/day |
| Cc1c(N)nc(C(CC(N)=O)NCC(N)C(N)=O)nc1C(=O)NC(C(=O)NC(C)C(O)CC(=O)NC(C(=O)NC(OC1OC(C)C(N)C(O)C1O)C(O)c1nc(-c2nc(C(=O)NCCCNC(C)c3ccccc3)cs2)cs1)C(C)O)C(OC1OC(CO)C(O)C(O)C1OC1OC(CO)C(O)C(OC(N)=O)C1O)c1c[nH]cn1 (centres unmarked) [Tallysomycin S14b] | – | 0.29 | – | 3.0 | 16 | 0.08 | 1,090 μ/mg | > 100 | 25 | 3.1 | 3.1 | 0.4 | 0.4 | 25 | 0.2 | 0.43 | 0.04 | – |
